This is an account of results in US12006283B2, “HIF-1α inhibitor, preparation method therefor, and pharmaceutical composition for preventing or treating angiogenesis-associated eye disease, containing same as active ingredient” (SEOUL NATIONAL UNIVERSITY R&DB FOUNDATION, priority 2018, dated 2024).

In experiment [1] the target is T1, HIF-1α (hypoxia-inducible factor 1α) (Homo sapiens, UniProt Q16665). The experiment in a line: Evaluation of HIF-1α inhibitory activity (in vitro). In kind it is cell-based. Particulars: for pIC50: HIF-1α inhibitory activity. As to the method:
<Experimental Example 1> Evaluation of HIF-La Inhibitory Activity (In Vitro) The following experiment was performed in order to evaluate inhibitory activity against HIF-1α (hypoxia-inducible factor 1α) of the compound of Example according to an embodiment of the present invention.

The test system of a further experiment is angiogenesis. As to the kind of experiment: Evaluation of inhibitory activity against angiogenesis (in vitro). In kind it is cell-based. The settings on record: FIG. 1, compared with Comparative Example 1. How it is done: <Experimental Example 2> Evaluation of Inhibitory Activity Against Angiogenesis (In Vitro)
The following experiment was performed in order to evaluate inhibitory activity against angiogenesis of the compound of Example according to an embodiment of the present invention.
FIG. 1 is a graph showing the results of analysis of inhibitory activity against angiogenesis of the compound of Example according to an embodiment of the present invention, wherein compound 2 is a compound of Comparative Example 1, and compound 34f is a compound of Example 10.

Experiment [2] has as its target T1, HIF-1α (hypoxia-inducible factor 1α). The experiment in a line: Evaluation of HIF-1α regulatory activity (in vitro). The experiment is classed as cell-based. The settings on record: FIG. 2, compared with Comparative Example 1. How it is done: <Experimental Example 3> Evaluation of HIF-1α Regulatory Activity (In Vitro)
The following experiment was performed in order to evaluate regulatory activity of HIF-1α (hypoxia-inducible factor 1α) of the compound of Example according to an embodiment of the present invention.
FIG. 2 is a graph showing the results of analysis of the regulatory activity of HIF-1α (hypoxia-inducible factor 1α) of the compound of Example according to an embodiment of the present invention, wherein compound 2 is a compound of Comparative Example 1, and compound 34f is a compound of Example 10.

Experiment [3] relates to retinal neovascularization by hypoxia. The experiment in a line: Evaluation of inhibitory activity against retinal neovascularization by hypoxia. The settings on record: FIG. 3; compared with Comparative Example 1. The experiment is classed as in vivo. How it is done: <Experimental Example 4> Evaluation of Inhibitory Activity Against Retinal Neovascularization by Hypoxia
The following experiment was performed in order to evaluate inhibitory activity against retinal neovascularization by hypoxia of the compound of Example according to an embodiment of the present invention.
FIG. 3 is a graph showing the results of analysis of the inhibitory activity against retinal neovascularization by hypoxia of the compound of Example according to an embodiment of the present invention, wherein compound 2 is a compound of Comparative Example 1, and compound 34f is a compound of Example 10.

pIC50: −log10 of the molar value. Some results are limits rather than exact numbers.

T1 sequence (Q16665 whole entry, looked up): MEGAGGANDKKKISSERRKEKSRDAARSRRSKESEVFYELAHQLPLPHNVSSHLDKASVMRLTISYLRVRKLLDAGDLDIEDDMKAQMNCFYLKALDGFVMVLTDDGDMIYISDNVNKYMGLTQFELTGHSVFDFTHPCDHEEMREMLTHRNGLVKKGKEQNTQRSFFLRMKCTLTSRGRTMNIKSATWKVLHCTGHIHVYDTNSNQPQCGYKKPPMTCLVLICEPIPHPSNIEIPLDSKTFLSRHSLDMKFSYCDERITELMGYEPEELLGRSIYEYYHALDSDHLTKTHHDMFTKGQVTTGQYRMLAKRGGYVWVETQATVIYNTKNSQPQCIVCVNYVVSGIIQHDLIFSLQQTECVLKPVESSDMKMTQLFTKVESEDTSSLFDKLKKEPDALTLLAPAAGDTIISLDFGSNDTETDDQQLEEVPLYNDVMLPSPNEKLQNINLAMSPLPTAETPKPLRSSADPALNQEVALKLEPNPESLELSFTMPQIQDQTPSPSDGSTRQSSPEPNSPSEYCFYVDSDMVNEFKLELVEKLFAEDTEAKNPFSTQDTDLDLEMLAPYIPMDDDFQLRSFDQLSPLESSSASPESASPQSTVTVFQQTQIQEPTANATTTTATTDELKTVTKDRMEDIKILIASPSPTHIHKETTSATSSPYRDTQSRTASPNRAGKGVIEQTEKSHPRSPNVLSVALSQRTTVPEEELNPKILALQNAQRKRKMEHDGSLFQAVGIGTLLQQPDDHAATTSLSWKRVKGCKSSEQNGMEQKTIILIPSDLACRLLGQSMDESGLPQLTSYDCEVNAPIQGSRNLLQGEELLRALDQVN

As to “2-(3,4-dimethoxyphenyl)-1-(4-(pyrrolidin-1-yl)phenyl)propan-1-one [Example 11]”, in experiment [1], the pIC50 (as a rule, the negative decadic logarithm of the IC50, by convention in mol/L) was 5.58.
With `COc1ccc(C(=O)C(C)c2ccc(OC)c(OC)c2)c(OC)c1` (stereo not shown) [Example 2, 1-(2,4-dimethoxyphenyl)-2-(3,4-dimethoxyphenyl)propan-1-one], the pIC50 in experiment [1] was less than 4.82.
Still for that read-out and setting: the figure for `CCOc1ccc(C(=O)C(C)c2ccc(OC)c(OC)c2)c(OC)c1` (stereo not shown) [Example 3, 2-(3,4-dimethoxyphenyl)-1-(4-ethoxy-2-methoxyphenyl)propan-1-one] is 4.93; for `COc1ccc(C(C)C(=O)c2ccc(OC3CCCCC3)cc2OC)cc1OC` (stereo not shown) [Example 4, 1-(4-(cyclohexyloxy)-2-methoxyphenyl)-2-(3,4-dimethoxyphenyl)propan-1-one] it is 5.59; for `COc1ccc(C(C)C(=O)c2ccc(N(C)C)cc2OC)cc1OC` (stereo not shown) [Example 5, 2-(3,4-dimethoxyphenyl)-1-(4-(dimethylamino)-2-methoxyphenyl)propan-1-one] it is less than 4.82.
Still for that read-out and setting: with `COc1ccc(C(C)C(=O)c2ccc(N3CCCC3)cc2OC)cc1OC` (stereo not shown) [Example 6, 2-(3,4-dimethoxyphenyl)-1-(2-methoxy-4-(pyrrolidin-1-yl)phenyl)propan-1-one] the figure was 5.55; with `COc1ccc(C(C)C(=O)c2ccc(N3CCCCC3)cc2OC)cc1OC` (stereo not shown) [Example 7, 2-(3,4-dimethoxyphenyl)-1-(2-methoxy-4-(piperidin-1-yl)phenyl)propan-1-one], 5.73; with `COc1ccc(C(C)C(=O)c2ccc(N3CCOCC3)cc2OC)cc1OC` (stereo not shown) [Example 8, 2-(3,4-dimethoxyphenyl)-1-(2-methoxy-4-morpholinophenyl)propan-1-one], 5.06.
Same read-out and setting: with `COc1ccc(C(C)C(=O)c2ccc(NCc3ccccc3)cc2OC)cc1OC` (stereo not shown) [Example 9, 1-(4-(benzylamino)-2-methoxyphenyl)-2-(3,4-dimethoxyphenyl)propan-1-one] the figure was 5.84.
In experiment [1], `COc1ccc(C(C)C(=O)c2ccc(NCc3ccc(C#N)cc3)cc2OC)cc1OC` (stereo not shown) [Example 10] showed a pIC50 of 6.22. Besides, in experiment [1] (comment on Table 2), the “inhibitory activity against HIF-1α (in words)” value is “best inhibitory activity against HIF-1a”. In addition, the “inhibitory activity against angiogenesis” value in the experiment with angiogenesis was “better inhibitory activity against angiogenesis than that of the compound of Comparative Example 1”. Besides, in experiment [2], the HIF-1α regulatory activity entry is recorded as “better HIF-1α regulatory activity than that of the compound of Comparative Example 1”. Also, the “inhibitory activity against retinal neovascularization by hypoxia” value in experiment [3] is given as “better inhibitory activity against retinal neovascularization by hypoxia than that of the compound of Comparative Example 1”.
Regarding `COc1ccc(C(C)C(=O)c2ccc(N3CCOCC3)cc2)cc1OC` (stereo not shown) [Example 12, 2-(3,4-dimethoxyphenyl)-1-(4-morpholinophenyl)propan-1-one], the pIC50 in experiment [1] is 5.16.
Still for that read-out and setting: the figure for `CC(C(=O)c1ccc(N2CCCCC2)cc1)c1ccccc1F` (stereo not shown) [Example 13, 2-(2-fluorophenyl)-1-(4-(piperidin-1-yl)phenyl)propan-1-one] is 5.69; for `CC(C(=O)c1ccc(NCc2ccccc2)cc1)c1ccccc1F` (stereo not shown) [Example 14, 1-(4-(benzylamino)phenyl)-2-(2-fluorophenyl)propan-1-one] it is 5.13.
Turning to `COc1cc(N2CCCCC2)ccc1C(=O)C(C)c1ccccc1F` (stereo not shown) [Example 15, 2-(2-fluorophenyl)-1-(2-methoxy-4-(piperidin-1-yl)phenyl)propan-1-one], the pIC50 in experiment [1] is 5.19.
On the same count and under the same terms, with `COc1cc(NCc2ccc(C#N)cc2)ccc1C(=O)C(C)c1ccccc1F` (stereo not shown) [Example 16, 4-(((4-(2-(2-fluorophenyl)propanoyl)-3-methoxyphenyl)amino)methyl)benzonitrile] the figure was 5.28.
